Data on 1 sequence can be found in patent US20110166066A1, “CATESTATIN (CST) AND ITS VARIANTS FOR TREATMENT OF CARDIOVASCULAR AND METABOLIC DISORDERS” (priority 2008, published 2011).

Where two headings read alike, the source gives them in different places. No end group written: not given here.

For one test, the system named is eNOS. The test can be described thus: eNOS signalling by immunoblotting of mouse tissues. Conditions: CgA-KO mice. It is filed as in vivo. From the text: Adult WT (C57BL/6) and CgA-KO mice with mixed genetic background (129svJ×C57BL/6) were used in this study. Both WT and KO mice were generated from the original founder carrying mixed genotype (50% 129svJ: 50% C57BL/6) and were maintained by brother/sister mating. Hypertensive CGA-KO mice will serve as a model for hyper insulin sensitivity. WT mice were fed 60% high fat diet (HFD) for 20 weeks. Body weight and blood glucose levels were monitored and glucose and insulin tolerance testa were performed to determine status of insulin resistance. After 20 weeks of HFD feeding mice were injected IP with catestatin (40 μg/gm body weight) twice daily for 7 days. On the 8th day, 12 hours fasted mice were subjected to glucose tolerance tests to determine their insulin sensitivity. Tissues of WT and CgA-KO mice are analyzed AMPK and eNOS signalling by immunoblotting.
In general terms: A western blot detects proteins with antibodies after separation by electrophoresis.

The test system of test [1] is Langendorff perfused rat heart. The test is described as follows: Langendorff perfused rat heart, basal conditions: concentration-response of catestatin peptides. The source says:
Animals-Male Wistar rats (Morini, Bologna, Italy S.P.A.) weighing 180-250 g were housed (three per cage) in a ventilated cage rack system under standard conditions. Animals had food and water access ad libitum. The investigation conforms to the Guide for the Care and Use of Laboratory Animals, according to NIH Publication No. 85-23, revised 1996. Isolated heart preparation-Rats were anesthetized with ethyl carbamate (2 g/Kg rat, i.p.), the hearts rapidly excised and then transferred in ice-cold buffered Krebs-Henseleit solution (KHs). As previously described (23), the aorta was immediately cannulated with a glass cannula and connected to Langendorff apparatus to start perfusion at constant flow-rate (12 ml/min). Briefly, the apex of the left ventricle (LV) was pierced to avoid fluid accumulation. A water-filled latex balloon, connected to a pressure transducer ([…], Inc. USA), was inserted through mitral valve into the LV allowing isovolumic contractions and continuous mechanical parameters recording. Another pressure transducer located just above the aorta recorded coronary pressure (CP). […] Hemodynamic parameters were assessed using a PowerLab data acquisition system and analysed using Chart software (both purchased by ADInstruments, Basile, Italy). […] Curve fitting was accomplished in the program Kaleidagraph (Synergy Software, Reading, Pa.). Peptide EC50 and IC50 values were interpolated as the concentration that achieved 50% stimulation and inhibition, respectively. For analysis of phosphorylated proteins, levels were quantified using Bio-Rad QuantifyOne and volumes of phosphorylated proteins were divided by the levels of non-phosphorylated proteins to calculate fold activation. Stimulation of protein activity was expressed as fold increase over vehicle-treated control. The means and S.E.M. were calculated for each treatment. Multiple comparisons were made using either one-way ANOVA followed by Bonferroni's post-hoc test or two-way ANOVA. Statistical significance was concluded at p<0.05. Statistics were computed with the program InStat (GraphPad Software, Inc., San Diego, Calif.).

Test [2] has as its system WT and Chga knockout (KO) mice. The test can be described thus: Plasma catecholamine assay. The class given is in vivo. As to conditions: CST 40 μg/g bw ip for 30 min. The method, then: Catecholamine assay following immobilization stress: Mice were anesthetized by inhalation of “Isoflurane, USP” and blood was collected from the left ventricle in potassium EDTA tubes. […] Plasma catecholamine was measured by HPLC connected to an electrochemical detector (Waters 600E Multisolvent Delivery system and Waters 2465 Electrochemical Detector, MA) in a group of restraint mice (non-telemetered). Separation was performed on an Atlantis dC18 column (2.1×150 mm, 3 μm) from Waters. The mobile phase (0.15 ml/min) consisted of phosphate-citrate buffer and 2.2% N, N-Dimethylacetamide and acetonitrile at 95:5 (V/V). An internal standard 3,4-Dihydroxybenzylamine (DHBA, 1 ng) and an antioxidant sodium meta-bisulfite (final concentrations of 0.125 mM) were added to 0.25 ml of plasma. Following the addition of 15 mg of alumina (Aluminium oxide, Activity Grade: Super I, Type WA-4, Sigma-Aldrich, PA), the pH of the solution was raised to pH 8.6 by adding Tris buffer (0.96 M Tris, 50 mM EDTA, pH 8.69). Following a 30 min incubation and centrifugation (5000 rpm, 5 min), the supernatant was discarded and the beads were washed with water. The catecholamine was eluted with […] of 0.1 N HCl supplemented with 0.1 mM sodium meta-bisulfite. The data were analyzed using Empower software. Catecholamine levels were normalized with the recovery of internal standard.

For the next test, the system named is GSK-3β Ser9. The test is described as follows: Immunoblot of phosphorylated GSK-3β in WT-CST perfused hearts. Further details: species or system rat. Conditions: 110 nM. The protocol:
(§1) Cardiac signaling—Hearts were perfused with or without 110 nM WT-Cts as before. At the end of experiment hearts were snap frozen under liquid nitrogen and homogenized with 1 ml of ice cold 0.2 M sucrose, Tris maleate (pH 7.0) buffer supplemented with 2 mM EDTA, pH 8.0, 1 mM sodium orthovanadate, 10 mM sodium pyrophosphate, 1 mM phenylmethylsulfonyl fluoride, 10 μg/ml leupeptin, 10 μg/ml aprotinin and 0.1 mM 3-isobutyl-1-methylxanthine. SR membrane fractions were isolated from cytosolic proteins as described before (27). Protein content was determined by Bradford assay (BIO-RAD) and 100 μg of cytosolic protein was subjected to SDS-PAGE immunoblot analysis for phosphorylated-ERK, total ERK (P-ERK and T-ERK; Santa Cruz, Calif.). […]
(§2) Statistics—Data are expressed as the mean±SEM. Curve fitting was accomplished in the program Kaleidagraph (Synergy Software, Reading, Pa.). […] For analysis of phosphorylated proteins, levels were quantified using Bio-Rad QuantifyOne and volumes of phosphorylated proteins were divided by the levels of non-phosphorylated proteins to calculate fold activation. Stimulation of protein activity was expressed as fold increase over vehicle-treated control. The means and S.E.M. were calculated for each treatment. […]

The subject of test [3] is PLN (phospholamban) Ser16. The test is described as follows: Immunoblot of phosphorylated PLN in WT-CST perfused hearts. Further details: species or system rat. As to conditions: 110 nM. The protocol: as §1, §2

For the sequence “SSMKLSFRARAYGFRGPGPQL [WT-CST, catestatin]”, the eNOS signal result with eNOS is given as “reduced”. Also, in test [1], the EC50 is roughly 12.5 nM, the “Time the LVP effect remained stable” value turned out to be 15 min and the “Time to maximum effect on LVP after administration” value is 5 min. Further, the IC50 in test [1] (11 to 200 nM, measured at 10 min, read-out: +(LVdP/dt)max inhibition IC50) is roughly 72 nM. In addition, the EC50 in test [1] (11 to 200 nM, measured at 10 min, read-out: T/−t increment EC50) was determined as 60 nM. The IC50 in test [1] (11 to 200 nM, measured at 10 min, read-out: −(LVdP/dt)max decrement IC50) came to 74 nM. In addition, in test [1] (basal), the “Concentration of maximum CP response” value amounted to 200 nM, the “Concentration of maximum HR increase” value stood at 165 nM and the “Effect on CP (coronary pressure)” value is “dose-dependent increment”. Besides, in test [1] (basal conditions, Table 2), the Activity rank order entry is on record as “Activity: WT-CST > P370L-CST > G364S-CST”, the Inotropism entry is recorded as “Negative” and the Lusitropism result is listed as “Negative”. Also, the “Effect on HR” value in test [1] (basal, WT-Cts significant at 33 nM) is “significantly increased”. Also, the “Desensitization on repetitive exposure” value in test [1] (single concentration 33 nM, repeated) is given as “absence of desensitization”. In addition, in test [2], the “Basal plasma norepinephrine and epinephrine” value was “returned to WT level”. Also, the “Phosphorylation of GSK-3β at Ser9” value with GSK-3β Ser9 is listed as “inhibited”. Besides, in test [3], the “Phosphorylation of PLN at Ser16” value is on record as “inhibited”.
